Experimental data reported in patent publication US8796175B2, “Method for enhancing plant intrinsic defense” (Bayer CropScience AG, priority 2008, dated 2014).

Tested on: Tomato (Solanum lycopersicum 'Rentita')
Assay: Root growth test of tomatoes under oxygen deficiency conditions in the nutrient solution
Assay type: in vivo
Conditions: 1.0 mg a.i./plant, floating box, nutrient solution not aerated (oxygen deficiency stress), average of maximum root length per plant
Protocol: To prepare a suitable solution of the preparation, 1 part by weight of active substance is mixed with water to give the desired concentration.
Tomato seeds (Solanum lycopersicum ‘Rentita’) are grown in rock wool. After germination, the rock wool blocks are transferred into a floating box provided with the solution of the preparation and grown on under suitable climatic conditions.
The nutrient solution of the floating box was not aerated (oxygen deficiency stress).
After the desired period of time, the maximum length of the root per tomato plant is measured, and the average root length per floating box and treatment is calculated.

Question: For `CC(c1ccc(C(F)(F)F)nc1)S(C)(=O)=NC#N` (stereo not shown) [Compound (I-8)], which “Root growth of tomatoes: Length in cm after 4 d” value is on record?
Answer: 6.7 cm
